# Experimental data taken from patent US20080161232A1, “C5a Receptor Antagonist” (JERINI AG, priority 2005, published 2008).
# Positions of bridges follow the written chain, without caps; N, C: chain ends. Non-standard residues stand in square brackets, D forms with d. Residues, ends and D or L forms follow the SMILES beside them. *: point of attachment. Phe(3,4-Cl2) = N[C@@H](Cc1ccc(Cl)c(Cl)c1)C(=O)O; Dihydroorotyl(S) = O=C1C[C@@H](C(=O)*)NC(=O)N1; Phe(3-Cl) = N[C@@H](Cc1cccc(Cl)c1)C(=O)O; Phe(2-Cl) = N[C@@H](Cc1ccccc1Cl)C(=O)O; Phe(4-F) = N[C@@H](Cc1ccc(F)cc1)C(=O)O; 2Nal = N[C@@H](Cc1ccc2ccccc2c1)C(=O)O; Bta = N[C@@H](Cc1csc2ccccc12)C(=O)O; cisHyp = O=C(O)[C@@H]1C[C@H](O)CN1; d(hCha) = N[C@H](CCC1CCCCC1)C(=O)O; NMeF = CN[C@@H](Cc1ccccc1)C(=O)O; d(hLeu) = CC(C)CC[C@@H](N)C(=O)O; Cit = NC(=O)NCCC[C@H](N)C(=O)O; dCha = N[C@H](CC1CCCCC1)C(=O)O; Chg = N[C@H](C(=O)O)C1CCCCC1; Nicotinoyl = O=C(c1cccnc1)*; Nle = CCCC[C@H](N)C(=O)O; Orn = NCCC[C@H](N)C(=O)O; Aze = O=C(O)[C@@H]1CCN1; Dab = NCC[C@H](N)C(=O)O; Dap = NC[C@H](N)C(=O)O; tBu = CC(C)(C)*; Moc = COC(=O)*
# Molecular target: T1, human C5aR(CD88) (Homo sapiens, UniProt P21730)
# T1 construct: expressed in transfected cells; host or cells: rat basophilic leukemia cells (RBL)
# T1 sequence (P21730 1-350): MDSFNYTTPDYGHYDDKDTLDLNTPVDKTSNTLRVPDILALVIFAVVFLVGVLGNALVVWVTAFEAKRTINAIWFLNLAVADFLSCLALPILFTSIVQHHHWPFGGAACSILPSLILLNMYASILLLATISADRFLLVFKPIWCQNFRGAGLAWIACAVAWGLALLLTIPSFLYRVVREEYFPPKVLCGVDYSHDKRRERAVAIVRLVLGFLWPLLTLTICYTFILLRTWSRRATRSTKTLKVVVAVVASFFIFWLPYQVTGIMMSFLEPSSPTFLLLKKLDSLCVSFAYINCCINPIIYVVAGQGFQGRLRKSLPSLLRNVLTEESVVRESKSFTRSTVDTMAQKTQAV
# Assay: Determination of the IC50 value in an enzyme release assay (functional assay, antagonistic activity)
# Format: cell-based
# Settings: antagonistic activity; IC50 group in enzyme release assay, RBL cells expressing human C5aR(CD88); read-out: activity (group)
row,Structure (SMILES),IC50 [µM]
1,"COC(=O)N[C@@H](Cc1ccccc1)C(=O)N[C@@H](CCCN)C(=O)N1CCC[C@H]1C(=O)N[C@H](CC1CCCCC1)C(=O)N[C@@H](Cc1csc2ccccc12)C(=O)N[C@@H](Cc1ccccc1)C(N)=O [Compound 129, Me-O—CO-Phe-Orn-Pro-cha-Bta-Phe-NH2] (Moc-F[Orn]P[dCha][Bta]F-NH2)",0.05 to 0.2
2,"CC(=O)N[C@@H](Cc1ccccc1)C(=O)N[C@@H](CCCN)C(=O)N1CCC[C@H]1C(=O)N[C@H](CCC(C)C)C(=O)N[C@@H](Cc1ccc(F)cc1)C(=O)N[C@@H](Cc1ccc(Cl)c(Cl)c1)C(N)=O [Compound 299, Ac-Phe-Orn-Pro-hle-Pff-Eaa-NH2] (Ac-F[Orn]P[d(hLeu)][Phe(4-F)][Phe(3,4-Cl2)]-NH2)",0.05 to 0.2
3,"CC(=O)N[C@@H](Cc1ccccc1)C(=O)N[C@H]1CCCNC(=O)[C@H](C2CCCCC2)NC(=O)[C@H](Cc2c[nH]c3ccccc23)NC(=O)[C@@H](CC2CCCCC2)NC(=O)[C@@H]2CCCN2C1=O [Compound 190, Ac-Phe-[Orn-Pro-cha-Trp-Chg]] (Ac-F[Orn]P[dCha]W[Chg]; lactam 2-C)",0.05 to 0.2
4,"CC(=O)N[C@@H](Cc1ccccc1)C(=O)N[C@@H](CCCN)C(=O)N1CCC[C@H]1C(=O)N[C@H](CCC1CCCCC1)C(=O)N[C@@H](Cc1c[nH]c2ccccc12)C(=O)N[C@@H](Cc1ccccc1)C(N)=O [Compound 110, Ac-Phe-Orn-Pro-hch-Trp-Phe-NH2] (Ac-F[Orn]P[d(hCha)]WF-NH2)",0.02 to 0.05
5,"CC(C)CC[C@@H](NC(=O)[C@@H]1CCCN1C(=O)[C@H](CCCN)NC(=O)[C@H](Cc1ccccc1)NC(=O)[C@@H]1CC(=O)NC(=O)N1)C(=O)N[C@@H](Cc1cccc(Cl)c1)C(=O)N[C@@H](Cc1ccccc1)C(N)=O [Compound 351, Hoo-Phe-Orn-Pro-hle-Mcf-Phe-NH2] ({Dihydroorotyl(S)}-F[Orn]P[d(hLeu)][Phe(3-Cl)]F-NH2)",0.02 to 0.05
6,"CC(=O)N[C@@H](Cc1ccccc1)C(=O)N[C@@H](CCCN)C(=O)N1C[C@@H](O)C[C@H]1C(=O)N[C@H](CCC(C)C)C(=O)N[C@@H](Cc1ccc(F)cc1)C(=O)N[C@@H](Cc1ccccc1)C(N)=O [Compound 236, Ac-Phe-Orn-Chy-hle-Pff-Phe-NH2] (Ac-F[Orn][cisHyp][d(hLeu)][Phe(4-F)]F-NH2)",0.05 to 0.2
7,"CCCC[C@@H]1NC(=O)[C@H](Cc2ccccc2Cl)NC(=O)[C@@H](CCC(C)C)NC(=O)[C@H](CO)NC(=O)[C@@H](NC(=O)[C@@H](N)Cc2ccccc2)CCCNC1=O [Compound 386, H-Phe-[Orn-Ser-hle-Ocf-Nle]] (H-F[Orn]S[d(hLeu)][Phe(2-Cl)][Nle]; lactam 2-C)",0.05 to 0.2
8,"CC(=O)N[C@@H](Cc1ccccc1)C(=O)N[C@@H](CN)C(=O)N1CCC[C@H]1C(=O)N[C@H](CC1CCCCC1)C(=O)N[C@@H](Cc1csc2ccccc12)C(=O)N[C@@H](Cc1ccccc1)C(N)=O [Compound 216, Ac-Phe-Dap-Pro-cha-Bta-Phe-NH2] (Ac-F[Dap]P[dCha][Bta]F-NH2)",0.05 to 0.2
9,"CN[C@@H](Cc1ccccc1)C(=O)N[C@@H](CCCN)C(=O)N1CCC[C@H]1C(=O)N[C@H](CC1CCCCC1)C(=O)N[C@@H](Cc1c[nH]c2ccccc12)C(=O)N[C@@H](Cc1ccccc1)C(N)=O [Compound 75, H—Me-Phe-Orn-Pro-cha-Trp-Phe-NH2] (H-[NMeF][Orn]P[dCha]WF-NH2)",0.05 to 0.2
10,"CC(=O)N[C@@H](Cc1ccccc1)C(=O)N[C@H]1CCCNC(=O)[C@H](CC(C)C)NC(=O)[C@H](Cc2c[nH]c3ccccc23)NC(=O)[C@@H](CC2CCCCC2)NC(=O)[C@@H]2CCCN2C1=O [Compound 193, Ac-Phe-[Orn-Pro-cha-Trp-Leu]] (Ac-F[Orn]P[dCha]WL; lactam 2-C)",0.05 to 0.2
11,"CC(=O)N[C@@H](Cc1ccccc1)C(=O)N[C@@H](CCCN)C(=O)N[C@@H](C)C(=O)N[C@H](CC1CCCCC1)C(=O)N[C@@H](Cc1c[nH]c2ccccc12)C(=O)N[C@@H](Cc1ccccc1)C(N)=O [Compound 79, Ac-Phe-Orn-Ala-cha-Trp-Phe-NH2] (Ac-F[Orn]A[dCha]WF-NH2)",0.05 to 0.2
12,"CC(=O)N[C@@H](Cc1ccccc1)C(=O)N[C@@H](CCCN)C(=O)N1CCC[C@H]1C(=O)N[C@H](CC1CCCCC1)C(=O)N[C@@H](Cc1c[nH]c2ccccc12)C(=O)N[C@@H](Cc1ccccc1)C(N)=O [Compound 51, Ac-Phe-Orn-Pro-cha-Trp-Phe-NH2] (Ac-F[Orn]P[dCha]WF-NH2)",0.02 to 0.05
13,"CC(=O)N[C@@H](Cc1ccccc1)C(=O)N[C@@H](CCCN)C(=O)N1CCC[C@H]1C(=O)N[C@H](CC1CCCCC1)C(=O)N[C@@H](Cc1c[nH]c2ccccc12)C(=O)N[C@@H](Cc1ccc2ccccc2c1)C(N)=O [Compound 64, Ac-Phe-Orn-Pro-cha-Trp-2Ni—NH2] (Ac-F[Orn]P[dCha]W[2Nal]-NH2)",0.02 to 0.05
14,"CCCC[C@@H]1NC(=O)[C@H](Cc2c[nH]c3ccccc23)NC(=O)[C@@H](CC2CCCCC2)NC(=O)[C@H](CO)NC(=O)[C@@H](NC(=O)[C@H](Cc2ccccc2)NC(C)=O)CCCNC1=O [Compound 200, Ac-Phe-[Orn-Ser-cha-Trp-Nle]] (Ac-F[Orn]S[dCha]W[Nle]; lactam 2-C)",0.05 to 0.2
15,"CC(=O)N[C@@H](Cc1ccccc1)C(=O)N[C@@H](CCCN)C(=O)N1CCC[C@H]1C(=O)N[C@H](CSC(C)(C)C)C(=O)N[C@@H](Cc1ccc(Cl)c(Cl)c1)C(=O)N[C@@H](Cc1ccccc1)C(N)=O [Compound 264, Ac-Phe-Orn-Pro-ctb-Eaa-Phe-NH2] (Ac-F[Orn]P[dC](tBu)[Phe(3,4-Cl2)]F-NH2)",0.02 to 0.05
16,"CC(=O)N[C@@H](Cc1ccccc1)C(=O)N[C@@H](CCCCN)C(=O)N1CCC[C@H]1C(=O)N[C@H](CC1CCCCC1)C(=O)N[C@@H](Cc1c[nH]c2ccccc12)C(=O)N[C@@H](Cc1ccccc1)C(N)=O [Compound 87, Ac-Phe-Lys-Pro-cha-Trp-Phe-NH2] (Ac-FKP[dCha]WF-NH2)",0.05 to 0.2
17,"CC(=O)N[C@@H](Cc1ccccc1)C(=O)N[C@@H](CCCNC(N)=O)C(=O)N1CCC[C@H]1C(=O)N[C@H](CCC(C)C)C(=O)N[C@@H](Cc1csc2ccccc12)C(=O)N[C@@H](Cc1ccccc1)C(N)=O [Compound 211, Ac-Phe-Cit-Pro-hle-Bta-Phe-NH2] (Ac-F[Cit]P[d(hLeu)][Bta]F-NH2)",0.02 to 0.05
18,"CC(=O)NCC(=O)N[C@@H](Cc1ccccc1)C(=O)N[C@@H](CCCN)C(=O)N1CC[C@H]1C(=O)N[C@H](CC1CCCCC1)C(=O)N[C@@H](Cc1csc2ccccc12)C(=O)N[C@@H](Cc1ccccc1)C(N)=O [Compound 154, Ac-Gly-Phe-Orn-Aze-cha-Bta-Phe-NH2] (Ac-GF[Orn][Aze][dCha][Bta]F-NH2)",0.01 to 0.02
19,"CC(=O)N[C@@H](Cc1ccccc1)C(=O)N[C@@H](CCN)C(=O)N1CC[C@H]1C(=O)N[C@H](CC1CCCCC1)C(=O)N[C@@H](Cc1csc2ccccc12)C(=O)N[C@@H](Cc1ccccc1)C(N)=O [Compound 213, Ac-Phe-Dab-Aze-cha-Bta-Phe-NH2] (Ac-F[Dab][Aze][dCha][Bta]F-NH2)",0.02 to 0.05
20,"CCCC[C@@H]1NC(=O)[C@H](Cc2c[nH]c3ccccc23)NC(=O)[C@@H](CC2CCCCC2)NC(=O)[C@@H]2CCCN2C(=O)[C@@H](NC(=O)[C@H](Cc2ccccc2)NC(=O)c2cccnc2)CCCNC1=O [Compound 327, Fbn-Phe-[Orn-Pro-cha-Trp-Nle]] (Nicotinoyl-F[Orn]P[dCha]W[Nle]; lactam 2-C)",0.05 to 0.2
